Among the data in patent US20250195521A1 (Revolution Medicines, Inc., priority 2020, published 2025) are IC50 and EC50 values, retold here.

The structures appear in SMILES notation. Where only a bound is given, the exact number is not on record here.

The target in assay [1] is K-Ras G12C(GMP-PNP) binding to BRAF RBD (Homo sapiens (Human), UniProt P01116+P62937, G12C). Briefly: Disruption of BRAF RBD interaction with K-Ras (FRET / MOA assay), K-Ras G12C. The format is biochemical. The settings on record: read-out: KRAS G12C FRET IC50. The method in brief:
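TR-FRET readout: after 3 h compound incubation at 25 °C, anti-His Eu and anti-GST allophycocyanin (10 and 50 nM final) added for a further 1.5 h. Dilution series was 10-point, 3-fold, top 30 μM final. Ras–cyclophilin A ternary complex formation blocks the BRAF RBD interaction; IC50 derived from reduced FRET ratio relative to DMSO.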

The test system of a further assay is NCI-H358 (K-Ras G12C). Nature of the assay: CellTiter-Glo cell viability assay, NCI-H358. The format is cell-based, human. To be noted: Homo sapiens, NCI-H358, 120 h, 5-day treatment; read-out: H358 Cell Viability assay data (K-Ras G12C, IC50). The essentials:
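Viability read-out was luminescent (CellTiter-Glo) on day 5 of compound exposure in K-Ras G12C NCI-H358 cells. Values were expressed as percent of mean DMSO signal and fitted with a four-parameter logistic curve.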
A general note: ATP-based viability assays read luminescence as a measure of living cells.

Assay [2] relates to Capan-1 cells (K-Ras G12V). Nature of the assay: CellTiter-Glo cell viability, Capan-1. It is filed as cell-based, human. To be noted: Homo sapiens, CAPAN-1, 120 h, K-Ras G12V, 5-day treatment; read-out: Capan-1 Cell Viability IC50. The essentials:
(§1)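 Viability read by luminescence on day 5 after direct compound addition to cells, following ~30 min room-temperature equilibration. Values expressed as percent of mean DMSO signal, curves fitted with a four-parameter logistic model.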

The target in another assay is KRAS G13C (Homo sapiens (Human), UniProt P01116+P62937, G13C). Briefly: Ras-Raf disruption/FRET/MOA assay (BRAF RBD, Cyclophilin A). It is filed as biochemical. To be noted: read-out: KRAS G13C FRET IC50. The essentials: (§2)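 His6-K-Ras-GMPPNP (12.5 nM), GST-BRAF RBD (50 nM) and tagless Cyclophilin A (25 μM) were combined in 25 mM HEPES pH 7.3 with 100 mM NaCl, 5 mM MgCl2, 0.1% BSA and 0.002% Tween20, with compound as a 10-point 3-fold series from 30 μM final, then incubated 3 h at 25° C.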
Sequence of KRAS G13C (P01116 other isoform, or with tags, fused parts or gaps G13C): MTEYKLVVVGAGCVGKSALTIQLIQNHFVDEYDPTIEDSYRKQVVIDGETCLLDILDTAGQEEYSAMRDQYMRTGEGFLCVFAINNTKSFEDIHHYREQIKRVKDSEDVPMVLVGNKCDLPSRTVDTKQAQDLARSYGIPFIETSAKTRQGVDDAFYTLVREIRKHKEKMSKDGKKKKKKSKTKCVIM
Sequence of KRAS G13C (P62937 whole entry): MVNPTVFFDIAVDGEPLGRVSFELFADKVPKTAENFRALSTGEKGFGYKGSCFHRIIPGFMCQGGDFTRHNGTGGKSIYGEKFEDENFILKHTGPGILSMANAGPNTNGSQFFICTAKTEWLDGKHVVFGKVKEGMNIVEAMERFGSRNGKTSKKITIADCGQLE

Another assay has as its target NRAS Q61K (Homo sapiens (Human), UniProt P01111+P62937, Q61K). The description is as above. The format is biochemical. The method in brief:
(§3)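 TR-FRET read after 1.5 h with 10 nM anti-His Eu-W1024 and 50 nM anti-GST APC, following 3 h at 25 °C of GMPPNP-loaded His6-Ras (12.5 nM), GST-BRAF RBD (50 nM) and Cyclophilin A (25 μM) with compound from 30 μM final, 10 points, 3-fold. IC50 reported; pH 7.3 HEPES, 100 mM NaCl.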

The target of another assay is KRAS WT (Homo sapiens (Human), UniProt P01116+P62937). The assay is described as above. It is filed as biochemical. To be noted: read-out: KRAS WT FRET data IC50. The method in brief:
as §2

Another assay addresses NRAS G12C (Homo sapiens (Human), UniProt P01111+P62937, G12C). The description is as above. The format is biochemical. To be noted: read-out: NRAS G12C FRET data IC50. The method in brief: as §3
The target of a further assay is KRAS G12V (Homo sapiens (Human), UniProt P01116+P62937, G12V). The assay is described as above. It is filed as biochemical. To be noted: read-out: KRAS G12V FRET IC50. The essentials:
as §2

Another assay addresses KRAS G12D (Homo sapiens (Human), UniProt P01116+P62937, G12D). The description is as above. It is filed as biochemical. The settings on record: read-out: KRAS G12D FRET IC50. The essentials: as §2
The next assay deals with NRAS Q61R (Homo sapiens (Human), UniProt P01111+P62937, Q61R). The description is as above. It is filed as biochemical. The essentials: as §3
Sequence of NRAS Q61R (P01111 whole entry Q61R): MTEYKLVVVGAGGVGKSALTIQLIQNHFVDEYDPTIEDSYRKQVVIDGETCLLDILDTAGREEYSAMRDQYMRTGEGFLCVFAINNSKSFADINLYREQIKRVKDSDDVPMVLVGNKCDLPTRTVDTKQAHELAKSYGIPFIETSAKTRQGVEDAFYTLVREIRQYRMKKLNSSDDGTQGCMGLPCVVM
Sequence of NRAS Q61R (P62937 whole entry): as the sequence (P62937 whole entry) above
Another assay addresses KRAS G13D (Homo sapiens (Human), UniProt P01116+P62937, G13D). Described as above. The format is biochemical. To be noted: read-out: KRAS G13D FRET data IC50. The method in brief: as §2
For a further assay, the target named is KRAS G12C (Homo sapiens (Human), UniProt P01116+P62937, G12C). Described as above. The format is biochemical. The settings on record: read-out: KRAS G12C FRET IC50. The method in brief:
as §2

The target in a further assay is KRAS G12S (Homo sapiens (Human), UniProt P01116+P62937, G12S). The description is as above. The format is biochemical. To be noted: read-out: KRAS G12S FRET IC50. The essentials: as §2
Sequence of KRAS G12S (P01116 other isoform, or with tags, fused parts or gaps G12S): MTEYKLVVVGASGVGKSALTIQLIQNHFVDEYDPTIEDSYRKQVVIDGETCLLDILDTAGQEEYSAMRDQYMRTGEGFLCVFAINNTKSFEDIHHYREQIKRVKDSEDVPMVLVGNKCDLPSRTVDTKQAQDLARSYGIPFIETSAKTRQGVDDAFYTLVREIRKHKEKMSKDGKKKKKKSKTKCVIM
Sequence of KRAS G12S (P62937 whole entry): as the sequence (P62937 whole entry) above
For a further assay, the target named is NRAS WT (Homo sapiens (Human), UniProt P01111+P62937). The assay is described as above. The format is biochemical. The essentials: as §3
Sequence of NRAS WT (P01111 whole entry): as the sequence (P01111 whole entry Q61R) above, with R61Q counted along it
Sequence of NRAS WT (P62937 whole entry): as the sequence (P62937 whole entry) above
Assay [3] deals with NCI-H358 cells (K-Ras G12C). Briefly: CellTiter-Glo cell viability, NCI-H358. The settings on record: Homo sapiens, NCI-H358, 120 h, K-Ras G12C, 5-day treatment; read-out: H358 Cell Viability IC50. It is filed as cell-based, human. The method in brief:
as §1

The subject of assay [4] is K-Ras G12C (NCI-H358 cells). Briefly: Potency assay: pERK in NCI-H358 cells. To be noted: Homo sapiens; NCI-H358 cells, 4 hours; read-out: pERK EC50 (H358 KRAS G12C). It is filed as cell-based, human. The method in brief: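 Cells plated the day before were exposed for 4 h at 37° C, 5% CO2 to a 10-point, 3-fold DMSO dilution series (10 mM top stock), in duplicate. Phospho-ERK was read by AlphaLISA SureFire Ultra or by In-Cell Western with DRAQ5 DNA stain, and IC50 came from a 4-parameter sigmoidal fit.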

Sequence of KRAS G13D (P01116 other isoform, or with tags, fused parts or gaps G13D): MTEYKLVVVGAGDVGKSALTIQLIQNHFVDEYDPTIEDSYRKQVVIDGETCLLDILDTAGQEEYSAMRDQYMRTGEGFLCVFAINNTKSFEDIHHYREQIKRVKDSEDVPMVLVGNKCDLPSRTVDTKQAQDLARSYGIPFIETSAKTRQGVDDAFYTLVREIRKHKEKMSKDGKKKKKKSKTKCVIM
Sequence of KRAS G13D (P62937 whole entry): as the sequence (P62937 whole entry) above
Sequence of KRAS G12C (P01116-2 other isoform, or with tags, fused parts or gaps G12C): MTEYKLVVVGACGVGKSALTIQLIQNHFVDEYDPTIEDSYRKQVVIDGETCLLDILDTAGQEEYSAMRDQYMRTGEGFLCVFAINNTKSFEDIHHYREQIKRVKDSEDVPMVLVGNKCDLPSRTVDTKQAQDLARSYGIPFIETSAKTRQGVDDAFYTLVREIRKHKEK
Sequence of KRAS G12C (P62937 whole entry): as the sequence (P62937 whole entry) above
Sequence of KRAS G12D (P01116 other isoform, or with tags, fused parts or gaps G12D): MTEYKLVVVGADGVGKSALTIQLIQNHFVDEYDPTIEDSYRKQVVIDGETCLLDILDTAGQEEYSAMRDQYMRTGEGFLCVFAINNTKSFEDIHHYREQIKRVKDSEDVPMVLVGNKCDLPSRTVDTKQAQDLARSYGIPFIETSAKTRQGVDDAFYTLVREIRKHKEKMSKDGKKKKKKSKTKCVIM
Sequence of KRAS G12D (P62937 whole entry): as the sequence (P62937 whole entry) above
Sequence of NRAS Q61K (P01111 whole entry Q61K): as the sequence (P01111 whole entry Q61R) above, with R61K counted along it
Sequence of NRAS Q61K (P62937 whole entry): as the sequence (P62937 whole entry) above
Sequence of KRAS WT (P01116 other isoform, or with tags, fused parts or gaps): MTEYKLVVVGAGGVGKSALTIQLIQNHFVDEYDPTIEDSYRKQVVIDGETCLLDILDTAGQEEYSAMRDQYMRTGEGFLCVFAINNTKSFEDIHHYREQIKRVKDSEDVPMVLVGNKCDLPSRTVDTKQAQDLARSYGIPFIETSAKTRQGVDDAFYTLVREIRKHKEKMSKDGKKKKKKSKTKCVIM
Sequence of KRAS WT (P62937 whole entry): as the sequence (P62937 whole entry) above
Sequence of NRAS G12C (P01111 whole entry G12C): as the sequence (P01111 whole entry Q61R) above, with G12C, R61Q counted along it
Sequence of NRAS G12C (P62937 whole entry): as the sequence (P62937 whole entry) above
Sequence of KRAS G12V (P01116 other isoform, or with tags, fused parts or gaps G12V): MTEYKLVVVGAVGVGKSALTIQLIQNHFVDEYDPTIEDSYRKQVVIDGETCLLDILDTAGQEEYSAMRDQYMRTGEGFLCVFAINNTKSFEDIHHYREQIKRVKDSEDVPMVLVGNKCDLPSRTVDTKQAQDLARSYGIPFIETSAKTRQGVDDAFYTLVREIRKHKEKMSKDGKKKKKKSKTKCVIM
Sequence of KRAS G12V (P62937 whole entry): as the sequence (P62937 whole entry) above
Sequence of K-Ras G12C(GMP-PNP) binding to BRAF RBD (P01116 other isoform, or with tags, fused parts or gaps G12C): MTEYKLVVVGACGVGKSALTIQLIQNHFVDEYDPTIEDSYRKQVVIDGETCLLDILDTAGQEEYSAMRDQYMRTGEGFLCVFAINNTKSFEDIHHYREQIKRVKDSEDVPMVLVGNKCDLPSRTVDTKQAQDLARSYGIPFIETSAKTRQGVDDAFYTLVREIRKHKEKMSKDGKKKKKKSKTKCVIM
Sequence of K-Ras G12C(GMP-PNP) binding to BRAF RBD (P62937 whole entry): as the sequence (P62937 whole entry) above

As for `CCn1c(-c2cccnc2[C@H](C)OC)c2c3cc(ccc31)-c1csc(n1)C[C@H](NC(=O)[C@H](C(C)C)N(C)C(=O)N1C[C@@H]3CCN(C)C[C@@H]31)C(=O)N1CCC[C@H](N1)C(=O)OCC(C)(C)C2` [Compound A516], the IC50 in assay [1] is 1000 to 10000 nM; in the assay with NCI-H358 (K-Ras G12C), greater than 10000 nM; in [2], 100 to 1000 nM; on KRAS G13C, 1000 to 10000 nM; against NRAS Q61K it was 1000 to 10000 nM; at KRAS WT, 1000 to 10000 nM. The IC50 at NRAS G12C, at KRAS G12V, on KRAS G12D, against NRAS Q61R, on KRAS G13D and at KRAS G12C was 1000 to 10000 nM throughout. Moreover, the IC50 at KRAS G12S and at NRAS WT was 1000 to 10000 nM in each case.

Regarding `CCn1c(-c2cccnc2[C@H](C)OC)c2c3cc(ccc31)-c1csc(n1)C[C@H](NC(=O)[C@H](C(C)C)N(C)C(=O)N1C[C@H]3CCN(C)C[C@H]31)C(=O)N1CCC[C@H](N1)C(=O)OCC(C)(C)C2` [Compound A517], the IC50 in assay [3] is 1000 to 10000 nM; in [2], 100 to 1000 nM; on KRAS G13C, 1000 to 10000 nM; on NRAS Q61K, 1000 to 10000 nM; on KRAS WT, 1000 to 10000 nM; on NRAS G12C it was 1000 to 10000 nM. Besides, the IC50 on KRAS G12V, at KRAS G12D, against NRAS Q61R, at KRAS G13D, at KRAS G12C and at KRAS G12S was 1000 to 10000 nM throughout. This molecule came in with an IC50 on NRAS WT of 1000 to 10000 nM. The EC50 in [4] is less than 5000 nM.

For the molecule `CCn1c(-c2cc(N3CCN(C)CC3)cnc2[C@H](C)OC)c2c3cc(ccc31)-c1csc(n1)C[C@H](NC(=O)[C@H](C(C)C)N(C)C(=O)C1OCC[C@@H]1c1ccccc1)C(=O)N1CCC[C@H](N1)C(=O)OCC(C)(C)C2` (some centres unmarked) [Compound A583], the IC50 in assay [3] was less than 10 nM; in [2] it was less than 10 nM; at NRAS Q61K, 100 to 1000 nM; on NRAS G12C, 10 to 100 nM; at NRAS Q61R, 10 to 100 nM; on NRAS WT it was 100 to 1000 nM. For the same molecule, in assay [4], the EC50 was less than 5000 nM.

Take `CCn1c(-c2cccnc2[C@H](C)OC)c2c3nc(ccc31)-c1csc(n1)C[C@H](NC(=O)[C@H](C(C)C)N(C)C(=O)N1CC(OC)C1)C(=O)N1CCC[C@H](N1)C(=O)OCC(C)(C)C2` [Compound A613, N-((2S)-1-(((6^3S,4S,Z)-1^1-ethyl-1^2-(2-((S)-1-methoxyethyl)pyridin-3-yl)-10,10-dimethyl-5,7-dioxo-6^1,6^2,6^3,6^4,6^5,6^6-hexahydro-1^1H-8-oxa-2 (4,2)-thiazola-1 (5,3)-pyrrolo [3,2-b]pyridina-6 (1,3)-pyridazinacycloundecaphane-4-yl)amino)-3-methyl-1-oxobutan-2-yl)-3-methoxy-N-methylazetidine-1-carboxamide]: the IC50 in assay [1] fell in the range of 100 to 1000 nM; with NCI-H358 (K-Ras G12C), 10 to 100 nM; in assay [3], 100 to 1000 nM; in assay [2], 100 to 1000 nM; at KRAS G13C it was 1000 to 10000 nM; on NRAS Q61K it was 100 to 1000 nM. For the same molecule, the IC50 at KRAS WT, at NRAS G12C, on KRAS G12V, on KRAS G12D, against NRAS Q61R and on KRAS G13D was 1000 to 10000 nM in each case. Further, the IC50 on KRAS G12C, on KRAS G12S and on NRAS WT was 1000 to 10000 nM each time.

As a reminder, the IC50 is the concentration at which inhibition is half-maximal. By EC50 is commonly meant the concentration giving half of the maximal effect.
